# According to US20190010524A1, “BIOLOGICAL METHODS FOR PREPARING A FATTY DICARBOXYLIC ACID” (Verdezyne, Inc., priority 2012, published 2019):
# Tests used:
# [1] = test system: Candida tropicalis (ATCC20962); test: Fermentation procedure for conversion of decane to sebacic acid (Example 3); type: cell-based; details: GC at 44 hours after initiating the conversion phase, FIG. 16
# Procedure: Filter sterilized modified SP92-glycerol fermentation medium (6.7 g/L yeast nitrogen base, 3.0 g/L yeast extract, 3.0 g/L (NH4)2SO4, 1.0 g/L K2HPO4, 1.0 g/L KH2PO4, 20 g/L glycerol) is transferred to a sterile fermentation vessel. Growth of Candida tropicalis (ATCC20962) is inoculated to an initial OD600nm of about 1.0 with a 5% inoculum and growth carried out under the following conditions: 30° C. with shaking at about 1000 rpm, 1 volume per volume per minute aeration (vvm), pH 5.8 and initial volume of 0.3 L. Growth proceeds for approximately 8 hours and the conversion phase is initiated by the addition of decane to 2 g/L. Continuous feeds for decane (1 g/L-h) and glucose (1.5 g/L-h) are initiated at the same time as the addition of the decane bolus. Fermentation conditions are maintained at 30° C., 1000 rpm, 1 vvm, and pH 5.8 for 44 hours.
# Samples were collected for GC analysis at 44 hours after initiating the conversion phase. […] Significant evaporative losses from the decane feed bottles prevented an accurate determination of product yield.
# Candida [2] = details: stated as background; cited from earlier work
# Candida [3] = test: Toxicity of feedstock or by-product to the yeast (viable cell counts); type: cell-based
# Text: Methyl esters of fatty acids can be converted to the corresponding diacid by beta-oxidation-blocked strains of Candida since Candida produces an esterase that demethylates the fatty acid ester during the omega-oxidation process, allowing conversion of methyl decanoate into the non-toxic diacid, sebacic acid. Unfortunately, having an excess of methyl decanoate in the fermentation broth prior to induction of the enzymes involved in omega-oxidation process results in sufficient demethylation of methyl decanoate to produce toxic levels of decanoic acid, resulting in rapid cell death and a failed fermentation. The standard fermentation procedure would utilize the feedstock (methyl decanoate) as inducer.
# Growth was initiated with an inoculum of pre-culture to an initial OD600nm=1.0 and growth conditions of 35° C., 1000 rpm, 1 vvm, pH 5.8. Growth continued for approximately 10-12 h at which point the conversion phase was induced by the addition of either: 1) a bolus of 10 g/L of decane (Sigma-Aldrich #457116) for 6 h after which a continuous feed of methyl decanoate (TCI America #D0023) at 0.25 g/L-h was initiated or 2) no addition of decane. Induction was performed by initiating a continuous feed of methyl decanoate at 0.25 g/L-h. Because of the volatility of decane, the aeration rate was reduced to 0.3 vvm during the 6-h induction phase with decane as inducer. […]
# [4] = test system: Candida strain ATCC 20962; test: Bioreactor conversion of ethyl decanoate to sebacic acid (Example 73); type: cell-based; details: decane induction
# Procedure: (§1) By conversion tests for ethyl decanoate were performed in 0.5 L Infors HT Multifors bioreactors (Infors AG, Switzerland) with working volumes of 0.4 L each. […] Fermentation medium. […] Bioreactors were equipped with two rushton impellers rotating at 1000 rpm. Bioreactors were inoculated to an OD of approximately 0.2 and growth continued for approximately 12-14 hours, at which point the conversion phase was initiated by evenly space boluses of ethyl decanoate. Culture pH was kept constant at 5.8 during the growth phase by automatic addition of 6 N KOH and temperature and airflow were controlled at 30° C. and 1 vvm respectively.
# (§2) At induction, the pH was changed to 6.2 and maintained by addition of 6N KOH. Bioreactors were induced with an initial 4.0 ml bolus of decane for 6 hours with an airflow rate of 0.25 vvm to minimize evaporation.
# Following this initial 6 hour induction, airflow was increased to 1 vvm and 58 μl of ethyl decanoate was added every 30 minutes for the next 6 hours. Ethyl decanoate boluses were then increased to 116 μl at a frequency of once per hour for the next 36 hours. In addition, a co-feed of dextrose was fed at a rate of 1.25 g/L-h. Final samples were taken 12 hours after the final ethyl decanoate bolus. […]
# strain sAA1082 = test: as above; type: cell-based, Candida
# Procedure: as §1, §2
# (§3) Following this initial 6 hour induction, airflow was increased to 1 vvm and 58 μl of ethyl decanoate was added every 30 minutes for the next 6 hours. Ethyl decanoate boluses were then increased to 116 μl at a frequency of once per hour for the next 36 hours. In addition, a co-feed of dextrose was fed at a rate of 1.25 g/L-h. Final samples were taken 12 hours after the final ethyl decanoate bolus. Yield calculations were made for all cultures taking only added ethyl decanoate into account due to the volatility of decane and the lack of decanedioic acid formation following the initial induction period.
# strain sAA2178 = test: as above; type: cell-based, Candida
# Procedure: as §1, §2, §3
structure (smiles),measurement,setting,value
CCCCCCCCCC [decane],conversion of decane,[1],"converted exclusively to the C10 dicarboxylic acid, sebacic acid"
CCCCCCCCCC(=O)OC [methyl decanoate],toxicity to Candida,Candida [2],very low toxicity
CCCCCCCCCC(=O)O [decanoic acid],toxicity to Candida (viable cell count data),Candida [3],demonstrates the toxicity
same,toxicity to Candida,Candida [2],high degree of toxicity
CCCCCCCCCCCC(=O)O [Lauric acid],toxicity to Candida,Candida [2],not as toxic to Candida as is decanoic acid
CCCCCCCCCC(=O)OCC [Ethyl decanoate],Feedstock Yield (g sebacic acid/g feedstock) ATCC 20962,[4],0.685 g sebacic acid/g feedstock
same,% improvement over ATTC 20962 sAA1082,strain sAA1082,58.9%
same,Feedstock Yield (g sebacic acid/g feedstock) sAA1082,"strain sAA1082; bioreactor, decane induction",1.088 g sebacic acid/g feedstock
same,% improvement over ATTC 20962 sAA2178,strain sAA2178,50.7%
same,Feedstock Yield (g sebacic acid/g feedstock) sAA2178,"strain sAA2178; bioreactor, decane induction",1.032 g sebacic acid/g feedstock
